These results are taken from ChEMBL document CHEMBL3751789, “Synthesis, isomerization and biological activity of novel 2-selenohydantoin derivatives” (Bioorg Med Chem, 2016).

Molecules are shown by their SMILES. Calls of active or inactive are those of the source. No cut-off for these calls is given here. Where only a bound is given, the exact number is not on record here.

Data set [1] is described as follows: Antioxidant activity assessed as peroxide reduction rate at 80 uM using H2O2/pyrocatechol as substrate/hydrogen-donar. The class given is physicochemical.
Data set [2] deals with HEK293. Put plainly: Selectivity index, ratio CC50 for HEK293 cells to CC50 for human SiHa cells. It counts as functional.
Data set [3] is described as follows: Antioxidant activity assessed as peroxide reduction rate at 80 uM using H2O2/GSH as substrate/hydrogen-donar by GPx-based assay. It counts as physicochemical.
Data set [4] is described as follows: Antioxidant activity assessed as electrochemical reduction using Au electrode by cyclic voltammetric analysis. It counts as physicochemical.
A further data set has as its system HepG2. Put plainly: Cytotoxicity against human HepG2 cells after 48 hrs by MTT assay. It counts as functional. For orientation: Formazan colour is commonly taken as a measure of viable cells.
A further data set deals with SiHa. Put plainly: Cytotoxicity against human SiHa cells after 48 hrs by MTT assay. The class given is functional.
In the next data set the test system is MCF7. Put plainly: Cytotoxicity against human MCF7 cells after 48 hrs by MTT assay. The class given is functional.
A short description of data set [5]: (§1) Cytotoxicity against HEK293 cells after 48 hrs by MTT assay. The class given is cell-based. Conditions: human, HEK293 cells.
Data set [6] is described as follows: Antioxidant activity assessed as oxidation potential using glass carbon electrode by cyclic voltammetric analysis. It counts as physicochemical.
The nature of data set [7]: Antioxidant activity assessed as oxidation potential using Au electrode by cyclic voltammetric analysis. It counts as physicochemical.
The nature of data set [8]: Antioxidant activity assessed as electrochemical reduction using glass carbon electrode by cyclic voltammetric analysis. The class given is physicochemical.
The nature of data set [9]: Antioxidant activity assessed as peroxide reduction rate at 80 uM using H2O2/pyrogallol as substrate/hydrogen-donar by ABTS-based assay. The class given is physicochemical.
Data set [10] can be described thus: Antioxidant activity assessed as peroxide reduction rate at 80 uM using H2O2/guaiacol as substrate/hydrogen-donar by ABTS-based assay. It counts as physicochemical.
Data set [11] in a line: Antioxidant activity assessed as peroxide reduction rate at 80 uM using H2O2/4-aminoantipyrine as substrate/hydrogen-donar. It counts as physicochemical.
For data set [12], the system named is HEK293. Put plainly: Selectivity index, ratio CC50 for HEK293 cells to CC50 for human HepG2 cells. The class given is functional.
Data set [13] concerns HEK293. Put plainly: Selectivity index, ratio CC50 for HEK293 cells to CC50 for human MCF7 cells. It counts as functional.
The subject of data set [14] is HEK293. The data set is described as §1. It counts as cell-based. As to conditions: human, hek293, 48 h.

Turning to `C=CCN1C(=O)/C(=C/c2ccccn2)NC1=[Se]`, the Activity in data set [1] was 0 µM/min; in data set [3], 79 µM/min; in [4] it was -1.79 V; in data set [6] it was 1.2 V; in [7] it was 1.21 V; in [8] it was -2.15 V. Also, the Activity in data set [9], in data set [10] and in data set [11] was 0 µM/min in each case. Further, the “Selectivity Index” value with HEK293 [2], in the data set with HEK293 [12] and in the data set with HEK293 [13] was over 2 each time. For the same molecule, the CC50 – broadly, the concentration giving 50% cytotoxicity – turned out to be 29.8 µM in the data set with HepG2 (HepG2, 48 h); 23.6 µM in the data set on SiHa; 31.2 µM in the data set on MCF7 (MCF7, 48 h). Moreover, half-maximal cytotoxicity in [5] (CC50 at 48 h) was put at 42.6 µM.
Take `C=CCN1C(=O)/C(=C/c2ccccn2)N=C1[Se]C`: the Activity in data set [1], in data set [3], in data set [9], in data set [10] and in data set [11] was 0 µM/min throughout. The “Selectivity Index” value with HEK293 [2], in the data set on HEK293 [12] and in the data set on HEK293 [13] was over 2 throughout. The CC50 turned out to be 6.62 µM with HepG2 (HepG2, 48 h); 3.66 µM with SiHa; 7.18 µM in the data set on MCF7 (MCF7, 48 h). In data set [5], this molecule showed a 50% cytotoxic concentration (CC50) at 48 h of 12.6 µM.
For the molecule `C=CCN1C(=O)/C(=C/c2ccccn2)NC1=S`, the Activity in [1], in data set [3], in data set [9], in [10] and in [11] was 0 µM/min throughout. The CC50 result with HepG2, in the data set on SiHa and in the data set on MCF7 was “inactive” in each case. The CC50 result with HEK293 [14] is listed as “Not Active”.
With `O=c1c2ccccc2[se]n1-c1ccccc1` [EBSELEN], the Activity in data set [3] turned out to be 140 µM/min.
As for `O=C1/C(=C/c2ccccn2)NC(=[Se])N1C1CCCCC1`, the Activity in data set [1] was 0 µM/min; in [3] it was 138 µM/min; in data set [4], -1.81 V; in [6] it was 1.16 V; in data set [7] it was 1.23 V; in [8], -2.2 V. The Activity was found to be 0 µM/min in data set [9], 0 µM/min in data set [10] and 3 µM/min in [11].
As for `C=CCN1C(=O)CNC1=[Se]`, the CC50 in the data set with HepG2 (HepG2, 48 h) amounted to 16.4 µM; with SiHa, 12.7 µM; with MCF7 (MCF7, 48 h), 44.1 µM. In addition, the midpoint of cytotoxicity in data set [5], the CC50 at 48 h, lay at 10.3 µM.
Turning to `CCOC(=O)CNC(=[Se])NC1CCCCC1`, the Activity in data set [1] was 1.3 µM/min; in data set [3], 82 µM/min; in data set [9], 0 µM/min; in data set [10] it was 0 µM/min; in data set [11], 0 µM/min.
Regarding `O=C1/C(=C/c2ccccn2)N=C([Se]CC[Se]C2=N/C(=C\c3ccccn3)C(=O)N2C2CCCCC2)N1C1CCCCC1`, the Activity in data set [4] is reported as -1.86 V; in data set [6], 1.46 V; in [7] it was 1.28 V; in [8], -2.61 V.
`C=CCN1C(=O)/C(=C/c2ccccn2)N=C1SC`: the 50% cytotoxic concentration (CC50) was 56.7 µM in the data set on HepG2 (HepG2, 48 h); 102 µM in the data set on SiHa; “Not Active” with HEK293 [14]. Moreover, in the data set with MCF7, the CC50 entry was “inactive”.
For the molecule `C=CCN1C(=O)CNC1=S`, the CC50 was 40.7 µM in the data set on HepG2 (HepG2, 48 h); 42.4 µM in the data set with SiHa; 35.2 µM in the data set with MCF7 (MCF7, 48 h). Further, in data set [5], the CC50 at 48 h was 58.2 µM.
